Values of other authors, collected in patent US11590211B2, “Systems for treating dermal inflammatory conditions” (Nuvothera, Inc., priority 2016, dated 2023).

What was measured:
skin cells = details: reference 10
human keratinocytes = details: through suppression of pro-inflammatory pathways; references 8, 9
NF-κB = details: reference 5
modified mouse tail test = details: reference 7

In the case of COc1cc(/C=C/C(=O)CC(=O)/C=C/c2ccc(O)c(OC)c2)ccc1O [curcumin], the “Effect on anti-apoptotic function of TNF-α in skin cells” value (skin cells) is listed as “reverse the anti-apoptotic function of TNF-α”, the “Effect on proliferation of human keratinocytes” value (human keratinocytes) is listed as “inhibition of the proliferation” and the “Activation of NF-κB” value (NF-κB) is listed as “down-modulated”. For the same molecule, the “Activity in the modified mouse tail test” value (modified mouse tail test) was “anti-psoriatic activity”.
